Read-outs that look alike come from different tables or passages of the source.
Columns and labels:
σ1 receptor = molecular target: T1, σ1 receptor (Cavia porcellus, UniProt Q60492); test: σ1 receptor binding assay, radioligand [3H]-(+)-pentazocine, guinea pig brain membrane preparation; conditions: for inhibition at 1 µM / inhibition of the radioligand binding, σ1: test compound concentration of 1 µM
T1 construct: thawed membrane preparation of guinea pig brain; tissue Harlan-Winkelmann, Borchen, Germany (animal organs); host or cells: guinea pig brain membrane homogenate
T1 sequence (Q60492 whole entry): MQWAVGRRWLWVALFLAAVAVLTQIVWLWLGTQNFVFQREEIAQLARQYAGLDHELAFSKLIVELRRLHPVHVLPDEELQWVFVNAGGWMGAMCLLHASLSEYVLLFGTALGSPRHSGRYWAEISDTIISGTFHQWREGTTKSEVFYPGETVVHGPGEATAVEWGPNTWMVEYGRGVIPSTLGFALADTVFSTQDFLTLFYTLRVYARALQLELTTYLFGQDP

σ2 receptor = molecular target: T2, σ2 receptor (Rattus norvegicus, UniProt Q5U3Y7); test: σ2 receptor binding assay, radioligand [3H]di-o-tolylguanidine, rat liver membrane preparation; conditions: for inhibition at 1 µM / inhibition of the radioligand binding, σ2: test compound concentration of 1 µM; for Ki: read-out: Ki (nM) σ2
T2 construct: The thawed rat liver membrane preparation; tissue Harlan-Winkelmann, Borchen, Germany (animal organs); host or cells: rat liver membrane homogenate
T2 sequence (Q5U3Y7 1-176): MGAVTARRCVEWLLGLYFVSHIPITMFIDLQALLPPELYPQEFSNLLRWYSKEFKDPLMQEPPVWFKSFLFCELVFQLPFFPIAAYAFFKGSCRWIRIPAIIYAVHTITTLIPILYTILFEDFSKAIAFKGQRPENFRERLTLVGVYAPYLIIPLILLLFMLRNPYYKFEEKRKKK

[1] = [3H]-(+)-pentazocine, guinea pig brain, mean of three experiments (± SEM), values without SEM mean of two, read-out: Ki (nM) σ1

Row | Structure (SMILES) | inhibition at 1 µM (σ1 receptor) [%] | inhibition at 1 µM (σ2 receptor) [%] | melting point [°C] | further results
1 | O=C(Nc1ccc(F)c(F)c1)NC1CC23CCCCC2(CCC3)C1 (stereo not drawn) [23d, 1-(3,4-Difluorophenyl)-3-(syn- and anti-[4.3.3]propellan-8-yl)urea] | 0 | 0 | 168 to 175 | –
2 | C1CCC(CNC2CC34CCCCC3(CCC4)C2)CC1 (stereo not drawn) [compound 18, syn- and anti-N-Cyclohexylmethyl[4.3.3]propellan-8-amine] | – | – | 108 to 111 | Ki (σ1 receptor; Ki (nM) σ1): 34 ± 11 nM; Ki (σ2 receptor): 101 nM
3 | COc1ccc(C)cc1NC(=O)N(Cc1ccccc1)C1CC23CCCCC2(CC(=O)C3)C1 (stereo not drawn) [anti-21, 1 -Benzyl-3-(2-methoxy-5-methylphenyl)-1-(anti-11-oxo-[4.3.3]propellan-8-yl)urea] | – | – | 133 to 136 | inhibition of the radioligand binding, σ1 (σ1 receptor; 1 µM): 5%; inhibition of the radioligand binding, σ2 (σ2 receptor; 1 µM): 12%
4 | COc1ccc(C)cc1NC(=O)OC1CC23CCCCC2(CC(NCCCN)C3)C1 (stereo not drawn) [8-anti-4r, [(8-anti-11-anti and 8-anti-11-syn)-11-[(3-Aminopropyl)amino][4.3.3]propellan-8-yl] N-(2-methoxy-5-methylphenyl)carbamate] | 16 | 0 | 74 to 76 | –
5 | COc1ccc(C)cc1NC(=O)OC1CC23CCCCC2(CC(Nc2ccc(N)cc2)C3)C1 (stereo not drawn) [8-anti-4o, [(8-anti-11-anti and 8-anti-11-syn)-11-(4-Aminophenylamino)[4.3.3]propellan-8-yl] N-(2-methoxy-5-methylphenyl)carbamate] | 16 | – | – | Ki (σ2 receptor): 12000 nM
6 | COc1ccc(C)cc1NC(=O)OC1CC23CCCCC2(CC(NCCc2ccccc2)C3)C1 (stereo not drawn) [8-anti-4p, [(8-anti-11-anti and 8-anti-11-syn)-11-(Phenethylamino)[4.3.3]propellan-8-yl] N-(2-methoxy-5-methylphenyl)carbamate] | – | 0 | – | Ki (σ1 receptor; [1]): 668 nM
7 | COc1ccc(C)cc1NC(=O)OC1CC23CCCCC2(CC(NCc2ccc(OC)c(OC)c2)C3)C1 (stereo not drawn) [8-anti-4b, [(8-anti-11-anti and 8-anti-11-syn)-11-(3,4-Dimethoxbenzylamino)[4.3.3]propellan-8-yl] N-(2-methoxy-5-methylphenyl)carbamate] | 6 | 1 | – | –
8 | c1ccc(CNC2CC34CCCCC3(C2)CC2(C4)OCCO2)cc1 (stereo not drawn) [syn-14] | – | – | – | Ki (σ1 receptor; [1]): 750 nM; inhibition of the radioligand binding, σ2 (σ2 receptor; listed as syn- 14, 1 µM): 7%
9 | COc1ccc(C)cc1NC(=O)N(Cc1ccccc1)C1CC23CCCCC2(CC(=O)C3)C1 (stereo not drawn) [syn-21, 1 -Benzyl-3-(2-methoxy-5-methylphenyl)-1-(syn-11-oxo-[4.3.3]propellan-8-yl)urea] | – | 14 | 168 to 170 | inhibition of the radioligand binding, σ1 (σ1 receptor; 1 µM): 13%
10 | c1ccc(CNC2CC34CCCCC3(C2)CC2(C4)OCCO2)cc1 (stereo not drawn) [anti-14, (11′-anti)-Spiro-([1,3]dioxolane-2,8′-(N-benzyl[4.3.3]propellan))-11′-amine] | – | – | – | Ki (σ1 receptor; [1]): 1400 nM; inhibition of the radioligand binding, σ2 (σ2 receptor; 1 µM): 0%
11 | COc1ccc(C)cc1NC(=O)NC1CC23CCCCC2(CCC3)C1 (stereo not drawn) [23c, 1-(2-Methoxy-5-methylphenyl)-3-(syn- and anti-[4.3.3]propellan-8-yl)urea] | 0 | 0 | 215 to 220 | –
12 | COc1ccc(C)cc1NC(=O)OC1CC23CCCCC2(CC(NCCCc2ccccc2)C3)C1 (stereo not drawn) [8-anti-4q, [(8-anti-11-anti and 8-anti-11-syn)-11-(3-Phenylpropylamino)[4.3.3]propellan-8-yl] N-(2-methoxy-5-methylphenyl)carbamate] | 22 | 0 | – | –
13 | CN(C)c1ccc(CNC2CC34CCCCC3(CCC4)C2)cc1 (stereo not drawn) [compound 17, syn- and anti-N-(4-(Dimethylaminobenzyl)-[4.3.3]propellan-8-amine] | – | 1 | 89 to 91 | Ki (σ1 receptor; [1]): 1200 nM
14 | COc1ccc(C)cc1NC(=O)OC1CC23CCCCC2(CC(NCc2ccc(N(C)C)cc2)C3)C1 (stereo not drawn) [8-anti-4h, [(8-anti-11-anti and 8-anti-11-syn)-11-[(4-Dimethylamino)benzylamino]-[4.3.3]propellan-8-yl] N-(2-methoxy-5-methylphenyl)carbamate] | 0 | 0 | – | –
15 | O=C(Nc1ccc(F)c(F)c1)NC1CC23CCCCC2(CC(O)C3)C1 (mixture of isomers) [8-syn-26, 1-(3,4-Difluorophenyl)-3-(8-syn-11-syn- and 8-syn-11-anti-11-hydroxy[4.3.3]-propellan-8-yl)urea] | 10 | 0 | 171 to 178 | –
16 | COc1ccc(C)cc1NC(=O)OC1CC23CCCCC2(CC(NCC(C)C)C3)C1 (stereo not drawn) [8-anti-4u, [(8-anti-11-anti and 8-anti-11-syn)-11-(Isobutylamino)[4.3.3]propellan-8-yl] N-(2-methoxy-5-methylphenyl)carbamate] | 5 | – | – | Ki (σ2 receptor): 854 nM
17 | OC1CC23CCCCC2(C1)CC(NCc1ccccc1)C3 (mixture of isomers) [11-anti-13, [(8-anti-11-anti and 8-anti-11-syn)-11-(Benzylamino)[4.3.3]propellan-8-ol] | 29 | – | 121 to 123 | Ki (σ2 receptor): 1070 nM
18 | O=C(NC1CCCCC1)NC1CC23CCCCC2(CCC3)C1 (stereo not drawn) [23b, 1 -Cyclohexyl-3-(syn- and anti-[4.3.3]propellan-8-yl)urea] | 0 | 0 | 187 to 193 | –
19 | O=C1CC23CCCCC2(C1)CC(NC(=O)Nc1ccc(F)c(F)c1)C3 (stereo not drawn) [syn-25, 1-(3,4-. Difluorophenyl)-3-(8-syn-11-oxo[4.3.3]propellan-8-yl)urea] | – | 0 | – | inhibition of the radioligand binding, σ1 (σ1 receptor; 1 µM): 10%
20 | COc1ccc(C)cc1NC(=O)OC1CC23CCCCC2(CC(NCc2ccc([N+](=O)[O-])cc2)C3)C1 (stereo not drawn) [8-anti-4g, [(8-anti-11-anti and 8-anti-11-syn)-11-(4-Nitrobenzylamino)[4.3.3]propellan-8-yl] N-(2-methoxy-5-methylphenyl)carbamate] | 24 | – | – | Ki (σ2 receptor): 1950 nM
21 | COc1ccc(C)cc1NC(=O)OC1CC23CCCCC2(CC(NCc2cc(C(F)(F)F)cc(C(F)(F)F)c2)C3)C1 (stereo not drawn) [8-anti-4f, [(8-anti-11-anti and 8-anti-11-syn)-11-[(3,5-Bis(trifluoromethyl)benzylamino]-[4.3.3]propellan-8-yl] N-(2-methoxy-5-methylphenyl)carbamate] | 0 | 0 | – | –
22 | COc1ccc(C)cc1NC(=O)OC1CC23CCCCC2(CC(Nc2ccccc2)C3)C1 (stereo not drawn) [8-anti-4l, [(8-anti-11-anti and 8-anti-11-syn)-11-(Phenylamino)[4.3.3]propellan-8-yl] N-(2-methoxy-5-methylphenyl)carbamate] | 13 | 0 | – | –
23 | COc1ccc(C)cc1NC(=O)OC1CC23CCCCC2(CC(NCc2ccc(Cl)c(Cl)c2)C3)C1 (stereo not drawn) [8-anti-4d, [(8-anti-11-anti and 8-anti-11-syn)-11-(3,4-Dichlorobenzylamino)[4.3.3]propellan-8-yl] N-(2-methoxy-5-methylphenyl)carbamate] | 0 | 4 | – | –
24 | O=C1CC23CCCCC2(C1)CC(NC(=O)Nc1ccc(F)c(F)c1)C3 (stereo not drawn) [anti-25, 1-(3,4-Difluorophenyl)-3-(8-anti-11-oxo[4.3.3]propellan-8-yl)urea] | – | – | – | inhibition of the radioligand binding, σ1 (σ1 receptor; 1 µM): 0%; inhibition of the radioligand binding, σ2 (σ2 receptor): 0%
25 | COc1ccc(C)cc1NC(=O)OC1CC23CCCCC2(CC(NCCc2c[nH]c4ccccc24)C3)C1 (stereo not drawn) [8-syn-4k, [(8-syn-11-syn and 8-syn-11-anti)-11-[(2-(Indol-3-yl)ethylamino][4.3.3]propellan-8-yl] N-(2-methoxy-5-methylphenyl)carbamate] | – | – | – | Ki (σ1 receptor; [1]): 983 nM; Ki (σ2 receptor): 1400 nM
26 | COc1ccc(C)cc1NC(=O)OC1CC23CCCCC2(CC(NCCO)C3)C1 (stereo not drawn) [8-anti-4s, [(8-anti-11-anti and 8-anti-11-syn)-11-(2-Hydroxyethyl-1-amino)[4.3.3]propellan-8-yl] N-(2-methoxy-5-methylphenyl)carbamate] | 12 | 0 | – | –
27 | COc1ccc(NC2CC34CCCCC3(C2)CC(OC(=O)Nc2cc(C)ccc2OC)C4)cc1Cl (stereo not drawn) [8-anti-4n, [(8-anti-11-anti and 8-anti-11-syn)-11-(3-Chloro-4-methoxyphenylamino)-[4.3.3]propellan-8-yl] N-(2-methoxy-5-methylphenyl)carbamate] | 0 | 0 | – | –
28 | O=C(Nc1ccccc1)NC1CC23CCCCC2(CCC3)C1 (stereo not drawn) [23a, 1 -Phenyl-3-(syn- and anti-[4.3.3]propellan-8-yl)urea] | 0 | 15 | 134 to 138 | –
29 | COc1ccc(C)cc1NC(=O)OC1CC23CCCCC2(CC(NCc2ccc(Cl)cc2)C3)C1 (stereo not drawn) [8-anti-4c, [(8-anti-11-anti and 8-anti-11-syn)-11-(4-Chlorobenzylamino)[4.3.3]propellan-8-yl] N-(2-methoxy-5-methylphenyl)carbamate] | 6 | 12 | – | –
30 | COc1ccc(C)cc1NC(=O)N(Cc1ccccc1)C1CC23CCCCC2(CC(O)C3)C1 (stereo not drawn) [syn,anti-22, 1 -Benzyl-1-{(8-syn,11-anti)-11-hydroxy[4.3.3]propellan-8-yl}-3-(2-methoxy-5-methylphenyl)urea] | – | – | – | inhibition of the radioligand binding, σ1 (σ1 receptor): 0%; inhibition of the radioligand binding, σ2 (σ2 receptor; 1 µM): 8%
